# Legend:
# Format in all cases: in vivo
# [1] = tested on: uterine bleeding; assay: Case: person with stage III Hodgkin disease, prevention of uterine bleeding during chemotherapy and irradiation; conditions: 10 mg/day orally, started before chemotherapy (MOPP) and irradiation
# Excerpt: A person is consulting for pneumonia. They report a recent history of night sweats and weight loss. […] The diagnosis is a stage III of Hodgkin disease. Their condition indicates chemotherapy (MOPP) and extended irradiation. The main risk of the proposed therapy is bone marrow suppression. This is life-threatening by exposing the patient to severe infection and septicemia, but it is also associated with severe thrombopenia and diffuse bleeding including uterine bleeding. In order to prevent uterine bleeding, before initiating specific treatment for their Hodgkin disease, they are orally administered 10 mg/day of CDB-2914. Following initiation of chemotherapy and irradiation, severe bone marrow suppression is recorded and the patient is admitted in aseptic unit. […] CBD2914 administration is maintained as long as coagulation parameters are not normalized.
# [2] = tested on: uterine bleeding; assay: Case: person with Acute Lymphotic Leukemia, thrombocytopenia and uterine bleeding, oral treatment
# Procedure: A post-pubertal person is consulting for fever, infections, uterine bleeding, petechia and dyspnea. Blood test identifies anemia (Hb 7.8 g/dL), normal leucocyte count (WBC 8657 cells/μL) and thrombocytopenia (platelets: 13.476 cells/mm^3). […] A diagnosis of Acute Lymphotic Leukemia is confirmed. The patient undergoes blood and platelet transfusion to correct for anemia and coagulation disorder. On the same day, they start taking orally 10 mg/day of CDB-2914. […] On that day, Hb is 9.9 g/dL; WBC 6345 cells/μL; and platelet count is 42 000 cells/mm^3. They continue taking orally 10 mg/day of CDB2914 for controlling abnormal uterine bleeding. […] After 3 months, they achieve remission, Hb is 13.1 g/dL; leucocyte count is normal, platelet count is 176 000 cells/mm^3. Bone marrow biopsy confirmed normalization.
# [3] = tested on: uterine bleeding; assay: Case: person on anticoagulant therapy with menorrhagia, oral treatment
# Procedure: A moderate smoker with a BMI at 32 is treated with anticoagulant therapy for an episode of pulmonary embolism resulting from a deep venous thrombosis in a leg. Despite effort to adapt their anticoagulation therapy, their menstruations are heavy (menorrhagia) and last for up to two weeks. Their Hb is at 9.2 gr/dL. […] Their thrombo-embolic condition precludes any therapy with oestrogens or progestins. Given, the absence of negative metabolic and pro-thrombotic effect of SPRM, they are orally administered 25 mg/day of Proellex® (CDB-4124). […] Their Hb progressively returned to normal (>12 gd/dL).
Compound,uterine bleeding despite severe thrombopenia [1],"uterine bleeding during continued treatment ([2]; 10 mg/day orally, 3 months, several episodes of thrombopenia and chemotherapy cycles, except for a few spotting)","time following initiation of treatment until uterine bleeding is stopped ([2]; 10 mg/day orally, blood and platelet transfusion on the same day)","menstrual bleeding after treatment is stopped ([2]; after 3 months, remission)",uterine bleeding after start of treatment ([3]; 25 mg/day orally),uterine bleeding during the 12 weeks of anticoagulation therapy ([3]; 25 mg/day orally),"Hb ([3]; 25 mg/day orally, 9.2 gr/dL before treatment, progressively returned to normal)",menstruations after treatment is stopped ([3]; after anticoagulation therapy is stopped)
CC(=O)O[C@]1(C(C)=O)CC[C@H]2[C@@H]3CCC4=CC(=O)CCC4=C3[C@@H](c3ccc(N(C)C)cc3)C[C@@]21C [CDB-2914],remains in amenorrhea,remains in amenorrhea,5 days,"regular, normal menstrual bleeding are restored",–,–,–,–
"COCC(=O)[C@@]1(OC(C)=O)CC[C@H]2[C@@H]3CCC4=CC(=O)CCC4=C3[C@@H](c3ccc(N(C)C)cc3)C[C@@]21C [Proellex, 17[alpha]-acetoxy-21-methoxy-11β-[4-N,N-dimethylaminophenyl]-19-norpregna-4,9-diene-3,20-dione]",–,–,–,–,stopped after a few days,remain amenorrheic,> 12 gd/dL,resumed normal menstruations
